Consider 25 compounds from patent US7795261B2, “Substituted 1-piperidin-4-yl-4-pyrrolidin-3-yl-piperazine derivatives and their use as neurokinin antagonists” (Janssen Pharmaceutica NV, priority 2002, dated 2010).

Molecules are shown by their SMILES.

Format in all cases: cell-based
Experiment [1] deals with NK1 (Homo sapiens, UniProt P25103). The experiment in a line: Signal transduction (ST), intracellular Ca++ (FLIPR), NK1 antagonistic activity. The settings on record: read-out: pIC50 NK1 (converted). The essentials:
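Antagonist IC50 was fitted by non-linear regression of peak intracellular Ca++ signals measured on FLIPR after agonist challenge. Beforehand, Fluo3-loaded confluent cells received antagonists over a concentration range for 20 min at room temperature in Ca++ Krebs buffer, pH 7.4.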

Experiment [2] addresses T1, NK2 (Homo sapiens, UniProt P21452).
T1 sequence (P21452 1-398): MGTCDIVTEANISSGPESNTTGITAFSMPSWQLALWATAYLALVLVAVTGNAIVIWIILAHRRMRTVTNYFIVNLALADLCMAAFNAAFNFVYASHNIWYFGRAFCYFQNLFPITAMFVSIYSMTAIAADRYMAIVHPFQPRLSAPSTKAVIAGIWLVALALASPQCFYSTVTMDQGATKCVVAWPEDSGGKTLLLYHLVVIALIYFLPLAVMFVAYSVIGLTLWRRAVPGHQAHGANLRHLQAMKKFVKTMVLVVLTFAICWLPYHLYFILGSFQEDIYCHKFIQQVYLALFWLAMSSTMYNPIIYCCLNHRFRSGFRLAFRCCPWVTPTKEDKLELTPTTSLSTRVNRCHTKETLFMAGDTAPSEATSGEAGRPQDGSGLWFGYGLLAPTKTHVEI
The experiment in a line: Signal transduction (ST), intracellular Ca++ (FLIPR), NK2. The settings on record: read-out: pIC50 NK2 (converted).

Experiment [3] has as its target T2, NK3 (Homo sapiens, UniProt P29371).
T2 sequence (P29371 1-465): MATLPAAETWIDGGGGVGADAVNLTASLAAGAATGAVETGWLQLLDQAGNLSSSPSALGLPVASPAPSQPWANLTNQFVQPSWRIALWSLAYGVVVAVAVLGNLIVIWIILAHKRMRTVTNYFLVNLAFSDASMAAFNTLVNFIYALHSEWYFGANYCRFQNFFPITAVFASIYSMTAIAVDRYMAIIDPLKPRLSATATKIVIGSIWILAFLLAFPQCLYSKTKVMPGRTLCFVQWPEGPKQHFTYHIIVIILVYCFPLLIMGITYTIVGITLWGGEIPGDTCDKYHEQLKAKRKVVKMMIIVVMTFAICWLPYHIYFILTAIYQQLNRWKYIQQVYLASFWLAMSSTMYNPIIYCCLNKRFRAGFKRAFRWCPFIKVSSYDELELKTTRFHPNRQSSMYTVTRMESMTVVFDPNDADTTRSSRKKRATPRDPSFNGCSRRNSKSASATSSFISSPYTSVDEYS
Briefly: Signal transduction (ST), intracellular Ca++ (FLIPR), NK3. The following applies: read-out: pIC50 NK3 (converted).

Sequence of NK1 (P25103 whole entry): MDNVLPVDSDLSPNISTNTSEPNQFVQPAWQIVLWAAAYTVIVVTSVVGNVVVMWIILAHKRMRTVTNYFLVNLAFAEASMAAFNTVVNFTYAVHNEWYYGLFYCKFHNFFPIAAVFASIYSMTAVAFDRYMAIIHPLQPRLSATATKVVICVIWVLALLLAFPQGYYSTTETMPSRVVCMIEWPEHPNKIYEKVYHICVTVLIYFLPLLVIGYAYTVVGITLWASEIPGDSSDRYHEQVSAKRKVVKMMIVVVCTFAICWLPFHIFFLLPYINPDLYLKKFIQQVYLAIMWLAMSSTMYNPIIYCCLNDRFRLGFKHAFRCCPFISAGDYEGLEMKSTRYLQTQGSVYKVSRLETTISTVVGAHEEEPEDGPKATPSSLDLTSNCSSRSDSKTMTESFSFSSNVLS

For `O=C(c1ccoc1)N1CC[C@H](N2CCN([C@H]3CCN(C(=O)c4cc(C(F)(F)F)cc(C(F)(F)F)c4)[C@H](Cc4ccc(Cl)c(Cl)c4)C3)CC2)C1` [Compound 326], the IC50 in experiment [1] is 15.8 nM; in experiment [2], 501 nM; in experiment [3] it was 501 nM.

Consider `O=C(Cc1cccs1)N1CCC(N2CCN([C@H]3CCN(C(=O)c4cc(C(F)(F)F)cc(C(F)(F)F)c4)[C@H](Cc4ccccc4)C3)CC2)C1` (stereo partly drawn) [Compound 67], for which the values for the IC50 in experiment [1], in experiment [2] and in experiment [3] were 25.1 nM, 3980 nM and 1000 nM, respectively.

For the compound `COC(=O)c1sccc1S(=O)(=O)N1CCC(N2CCN([C@H]3CCN(C(=O)c4cc(C(F)(F)F)cc(C(F)(F)F)c4)[C@H](Cc4ccccc4)C3)CC2)C1` (stereo partly drawn) [Compound 77], the IC50 in experiment [1] is 20 nM; in experiment [2], 2510 nM; in experiment [3] it was 501 nM.

`O=C(Cc1ccco1)N1CCC(N2CCN([C@H]3CCN(C(=O)c4cc(C(F)(F)F)cc(C(F)(F)F)c4)[C@H](Cc4ccccc4)C3)CC2)C1` (stereo partly drawn) [Compound 66]: the figures for the IC50 in experiment [1], in experiment [2] and in experiment [3] were 25.1 nM, 5010 nM and 398 nM, respectively.

Consider `O=C(C1CCOC1)N1CCC(N2CCN(C3CCN(C(=O)c4cc(C(F)(F)F)cc(C(F)(F)F)c4)C(Cc4ccc(Cl)c(Cl)c4)C3)CC2)C1` (single isomer, unassigned) [Compound 290], for which the IC50 in experiment [1] is 3.98 nM; in experiment [2] it was 1580 nM; in experiment [3], 398 nM.

Regarding `O=C(c1ccoc1)N1CCC(N2CCN([C@H]3CCN(C(=O)c4cc(C(F)(F)F)cc(C(F)(F)F)c4)[C@H](Cc4ccccc4)C3)CC2)C1` (stereo partly drawn) [Compound 34], the IC50 was 20 nM in experiment [1], 3160 nM in experiment [2] and 316 nM in experiment [3].

As to `O=C(c1cc(C(F)(F)F)cc(C(F)(F)F)c1)N1CC[C@H](N2CCN(C3CCN(C(=O)C4(O)CC4)C3)CC2)C[C@H]1Cc1ccccc1` (stereo partly drawn) [Compound 276], the IC50 is 10 nM in experiment [1], 3160 nM in experiment [2] and 5010 nM in experiment [3].

As for `COc1ccc(S(=O)(=O)N2CCC(N3CCN([C@H]4CCN(C(=O)c5cc(C(F)(F)F)cc(C(F)(F)F)c5)[C@H](Cc5ccccc5)C4)CC3)C2)cc1` (stereo partly drawn) [Compound 280], the IC50 was 15.8 nM in experiment [1], 1260 nM in experiment [2] and 3980 nM in experiment [3].

As to `Cn1cccc(C(=O)N2CCC(N3CCN(C4CCN(C(=O)c5cc(C(F)(F)F)cc(C(F)(F)F)c5)C(Cc5ccc(F)c(F)c5)C4)CC3)C2)c1=O` (single isomer, unassigned) [Compound 368], the values for the IC50 in experiment [1], in experiment [2] and in experiment [3] were 10 nM, 3160 nM and 3160 nM, respectively.

For the compound `O=C(c1c(Cl)cccc1Cl)N1CC[C@H](N2CCN([C@H]3CCN(C(=O)c4cc(C(F)(F)F)cc(C(F)(F)F)c4)[C@H](Cc4ccc(Cl)c(Cl)c4)C3)CC2)C1` [Compound 316], the IC50 in experiment [1] is 20 nM; in experiment [2] it was 794 nM; in experiment [3], 631 nM.

`O=C(C1CCCCC1)N1CC[C@H](N2CCN([C@H]3CCN(C(=O)c4cc(C(F)(F)F)cc(C(F)(F)F)c4)[C@H](Cc4ccc(Cl)c(Cl)c4)C3)CC2)C1` [Compound 314]: the IC50 was 15.8 nM in experiment [1], 1260 nM in experiment [2] and 501 nM in experiment [3].

On to `O=C(c1cc(C(F)(F)F)cc(C(F)(F)F)c1)N1CC[C@H](N2CCN(C3CCN(S(=O)(=O)c4ccccc4O)C3)CC2)C[C@H]1Cc1ccccc1` (stereo partly drawn) [Compound 307], for which the IC50 is 15.8 nM in experiment [1], 1260 nM in experiment [2] and 1260 nM in experiment [3].

In the case of `O=C(c1cccs1)N1CCC(N2CCN(C3CCN(C(=O)c4cc(C(F)(F)F)cc(C(F)(F)F)c4)C(Cc4ccc(F)c(F)c4)C3)CC2)C1` (single isomer, unassigned) [Compound 254], the figures for the IC50 in experiment [1], in experiment [2] and in experiment [3] were 10 nM, 251 nM and 501 nM, respectively.

In the case of `COc1ccc(S(=O)(=O)N2CCC(N3CCN([C@H]4CCN(C(=O)c5cc(C(F)(F)F)cc(C(F)(F)F)c5)[C@H](Cc5ccccc5)C4)CC3)C2)s1` (stereo partly drawn) [Compound 328], the results for the IC50 in experiment [1], in experiment [2] and in experiment [3] were 6.31 nM, 631 nM and 6310 nM, respectively.

For the compound `O=C(c1ccoc1)N1CCC(N2CCN(C3CCN(C(=O)c4cc(C(F)(F)F)cc(C(F)(F)F)c4)C(Cc4ccc(F)c(F)c4)C3)CC2)C1` (single isomer, unassigned) [Compound 258], the IC50 in experiment [1] was 12.6 nM; in experiment [2] it was 501 nM; in experiment [3], 398 nM.

For the compound `Cc1nnsc1C(=O)N1CCC(N2CCN(C3CCN(C(=O)c4cc(C(F)(F)F)cc(C(F)(F)F)c4)C(Cc4ccc(F)c(F)c4)C3)CC2)C1` (single isomer, unassigned) [Compound 253], the IC50 in experiment [1] is 5.01 nM; in experiment [2] it was 398 nM; in experiment [3], 501 nM.

As for `Cn1cccc1C(=O)N1CCC(N2CCN([C@H]3CCN(C(=O)c4cc(C(F)(F)F)cc(C(F)(F)F)c4)[C@H](Cc4ccccc4)C3)CC2)C1` (stereo partly drawn) [Compound 24], the IC50 in experiment [1] was 25.1 nM; in experiment [2], 6310 nM; in experiment [3], 251 nM.

Consider `O=C(c1cc(C(F)(F)F)cc(C(F)(F)F)c1)N1CC[C@H](N2CCN(C3CCN(S(=O)(=O)c4sccc4COCc4ccccc4)C3)CC2)C[C@H]1Cc1ccccc1` (stereo partly drawn) [Compound 292], for which the IC50 was 100 nM in experiment [1], 794 nM in experiment [2] and 794 nM in experiment [3].

With `O=C(c1cnccn1)N1CCC(N2CCN(C3CCN(C(=O)c4cc(C(F)(F)F)cc(C(F)(F)F)c4)C(Cc4ccc(F)c(F)c4)C3)CC2)C1` (single isomer, unassigned) [Compound 259], the IC50 in experiment [1] was 12.6 nM; in experiment [2] it was 2000 nM; in experiment [3] it was 501 nM.

With `O=C(c1ccsc1)N1CCC(N2CCN(C3CCN(C(=O)c4cc(C(F)(F)F)cc(C(F)(F)F)c4)C(Cc4ccc(F)c(F)c4)C3)CC2)C1` (single isomer, unassigned) [Compound 257], the values for the IC50 in experiment [1], in experiment [2] and in experiment [3] were 10 nM, 316 nM and 631 nM, respectively.

As for `O=C(c1ccccc1F)N1CCC(N2CCN([C@H]3CCN(C(=O)c4cc(C(F)(F)F)cc(C(F)(F)F)c4)[C@H](Cc4ccccc4)C3)CC2)C1` (stereo partly drawn) [Compound 16], the results for the IC50 in experiment [1], in experiment [2] and in experiment [3] were 31.6 nM, 5010 nM and 2510 nM, respectively.

Turning to `O=C(c1ccoc1)N1CCC(N2CCN(C3CCN(C(=O)c4cc(C(F)(F)F)cc(C(F)(F)F)c4)C(Cc4ccccc4)C3)CC2)C1` (single isomer, unassigned) [Compound 33], the IC50 was 15.8 nM in experiment [1], 3980 nM in experiment [2] and 501 nM in experiment [3].

Turning to `O=C(c1cccs1)N1CCC(N2CCN(C3CCN(C(=O)c4cc(C(F)(F)F)cc(C(F)(F)F)c4)C(Cc4ccc(Cl)c(Cl)c4)C3)CC2)C1` (stereo not drawn) [Compound 175], the results for the IC50 in experiment [1], in experiment [2] and in experiment [3] were 25.1 nM, 1000 nM and 398 nM, respectively.

Turning to `COc1ccc(C(=O)N2CCC(N3CCN([C@H]4CCN(C(=O)c5cc(C(F)(F)F)cc(C(F)(F)F)c5)[C@H](Cc5ccccc5)C4)CC3)C2)s1` (stereo partly drawn) [Compound 350], the IC50 in experiment [1] was 12.6 nM; in experiment [2], 5010 nM; in experiment [3], 5010 nM.

Consider `CC(C)(C)OC(=O)N1CC[C@@H](N2CCN([C@H]3CCN(C(=O)c4cc(C(F)(F)F)cc(C(F)(F)F)c4)[C@H](Cc4ccc(Cl)c(Cl)c4)C3)CC2)C1` [Compound 261], for which the IC50 in experiment [1] is 31.6 nM; in experiment [2] it was 1260 nM; in experiment [3] it was 501 nM.
